Experimental findings from US8409833B2 (Hokko Chemical Industry Co., Ltd., priority 2003, dated 2013) are described below.

In this test the test system is NAD^+-independent myo-inositol 2-dehydrogenase. Nature of the test: NAD^+-independent myo-inositol 2-dehydrogenase activity (oxidized DCIP, absorbance at 600 nm): substrate specificity, Km, heavy metal inhibition. To be noted: for Km: enzyme derived from Acetobacter sp. AB10253, sugar concentration varied; for reaction of the enzyme with the sugar: sugar at a final concentration of 50 mM.

The structures appear in SMILES notation. A value given as a limit tells only on which side of the number the result lay.

Experimental: The enzyme activity of each fraction was measured by a standard method: that is, the change in absorbance at 600 nm of 1 ml of a solution containing 50 μl of the protein solution, 100 mM phosphate buffer (pH 5.0), 5 mg of myo-inositol, and 0.4 mg of 2,4-dichloroindophenol (oxidized DCIP) was calculated into a reaction rate, and an activity to oxidize 1 μmol of myo-inositol per minute was defined as one unit.
For measurement of the optimum pH, the enzyme activity was measured while changing a buffer and pH value. As the buffer, there were used 100 mM phosphate buffer (pH 3 to 8), 100 mM Tris buffer (pH 7 to 8), and 100 mM carbonate buffer (pH 8 to 11).
The substrate specificity of the target enzyme was determined by measuring the enzyme activity in a solution containing various sugars instead of myo-inositol at a final concentration of 50 mM.

What is called Km is the substrate concentration at which the rate is half of its maximum. Consider `OC1C(O)C(O)C(O)C(O)C1O` [D-chiro-inositol], for which the Km stood at 8.8 mM.

Regarding `[Sn+2]` [Sn^2+ ion, reference compound], for the setting “1 mM ion, 100 mM phosphate buffer (pH 5.0)”, the “enzyme activity relative to the activity in the absence of the ion” value is no more than 1%.

With `OC1C(O)C(O)C(O)C(O)C1O` (stereo not drawn) [allo-inositol], the “reaction of the enzyme with the sugar” value is “not to react”.

Take `OC1C(O)C(O)C(O)C(O)C1O` (stereo not drawn) [muco-inositol]: the Km was 14.5 mM.

`OC1C(O)[C@H](O)[C@H](O)C(O)[C@@H]1O` (stereo partly drawn) [myo-inositol]: the Km is 20 mM.

`OC1C(O)[C@H](O)[C@H](O)C(O)[C@H]1O` (stereo partly drawn) [scyllo-inositol]: the “reaction of the enzyme with the sugar” value is “not to react”.
